Results published in patent US20100204295A1, “TREATMENT OF ALLERGIC DISEASE WITH IMMUNOMODULATOR COMPOUNDS” (SCICLONE PHARMACEUTICALS, INC., priority 2007, published 2010).

Columns and labels:
[1] = tested on: anti-OvA IgE; assay: Titer of anti-OvA IgE in serum and BAL by solid phase IFA, ovalbumin asthma model; assay type: in vivo, mice of the Balb/C line; details: for Titer IgE BAL, dilution 1:8, % of average of the control group / Titer IgE of serum, dilution 1:640, % of average of the control group: animals 6 to 8 weeks; for Titer IgE BAL, dilution 1:32, % of average of the control group / Titer IgE of serum, dilution 1:400, % of average of the control group: animals 18 to 20 weeks
Excerpt: Female, non-pathogenic mice of the Balb/C line (“Pushchtino” laboratory animal breeders) were kept under conditions of an SPF-vivarium at a constant temperature, 12-hour day/night cycle, and received sterile feed and water ad libitum. In two series of experiments, mice from 6-8 weeks and 18-20 weeks of age were used at the beginning of the experiment, respectively.
The animals were immunized twice at 5-day intervals with an ovalbumin solution (Sigma) in an adjuvant based on ammonium sulfate at a dosage of 8 μg per mouse. SCV-07 was administered intra-abdominally in a volume of 200 μL at a dosage of 0.1 or 1.0 μg/kg in PBS once a day from 6 through 11 days after the first immunization. The control group received physiological saline on the same days. Each group comprised 6 to 10 animals. On the 12th, 16th and 20th days after the first immunization, the animals were then placed in a hermetic box, in which an aerosol of 1% ovalbumin solution (OvA) in PBS was generated with an ultrasonic nebulizer LD-207U (Little Doctor) for 1 minute with continuous mixing of air. The duration of exposure of the animals to the aerosol was 15 minutes. Analysis of the severity of experimental allergic asthma was carried out 24 hours after the last aerosol exposure.
The peripheral blood was collected from the retro-orbital sinus. The titer of anti-OvA IgE in the serum and bronchoalveolar lavage was determined with solid phase IFA according to the following scheme. Rat antibodies to murine IgE labeled with biotin (Caltag) were introduced to a 96-well plate for IFA ((Corning Costar) in the dilution recommended by the manufacturer (100 μL/well), incubated for an hour at room temperature and washed. Serum samples or BAL were then introduced in successive dilutions and incubated at room temperature for an hour and washed. OvA was then added, labeled with horseradish peroxidase, incubated on a shaker for an hour at room temperature, washed and the substrate for peroxidase introduced (OPD, Sigma) and incubated for 15 minutes. The reaction was stopped by adding 1 M H2SO4 and the plates were analyzed on a Victor2 spectrophotometer (Wallac) at a wavelength of 450 nm. For quantitative comparison of the titers of the antigen-specific IgE after subtracting the background, we calculated the average optical density in each dilution for samples of the animal control group, and expressed the optical densities in the samples from all animals in the experiment in corresponding dilution as the percentages of the values obtained.

[2] = tested on: goblet cells in the epithelium of the bronchi; assay: Percentage of goblet cells in the epithelium of the bronchi, ovalbumin asthma model; assay type: in vivo, mice of the Balb/C line
Excerpt: Female, non-pathogenic mice of the Balb/C line (“Pushchtino” laboratory animal breeders) were kept under conditions of an SPF-vivarium at a constant temperature, 12-hour day/night cycle, and received sterile feed and water ad libitum. In two series of experiments, mice from 6-8 weeks and 18-20 weeks of age were used at the beginning of the experiment, respectively. The animals were immunized twice at 5-day intervals with an ovalbumin solution (Sigma) in an adjuvant based on ammonium sulfate at a dosage of 8 μg per mouse. SCV-07 was administered intra-abdominally in a volume of 200 μL at a dosage of 0.1 or 1.0 μg/kg in PBS once a day from 6 through 11 days after the first immunization. The control group received physiological saline on the same days. Each group comprised 6 to 10 animals. On the 12th, 16th and 20th days after the first immunization, the animals were then placed in a hermetic box, in which an aerosol of 1% ovalbumin solution (OvA) in PBS was generated with an ultrasonic nebulizer LD-207U (Little Doctor) for 1 minute with continuous mixing of air. The duration of exposure of the animals to the aerosol was 15 minutes. […] The number of goblet and epithelial cells on the sections of the bronchi were calculated in no less than five visual fields on sections from the lungs from each animal and expressed as the percentage of the total number of cells.

[3] = tested on: interleukin-4; assay: ConA-induced IL-4 production by splenocytes after intra-abdominal SCV-07; assay type: in vivo, mice; details: 1 μg/kg, five daily intra-abdominal injections; ConA 5 μg/mL
Experimental: SCV-07 was administered to intact wild mice in the form of five daily intra-abdominal injections at dosages of 0.1 and 1.0 μg/kg of body weight. After this, isolation of spleen cells was carried out the cytokine synthesis was induced in the culture by stimulating the cells with concanavalin A at a dosage of 5 μg/mL. The levels of the synthesized cytokines were determined by quantitative immunoenzyme analysis. […] The changes on ConA-induced production of two other [sic] cytokines—IFN-γ and IL-4, as is apparent from FIG. 1, were reciprocal in nature.

N[C@H](CCC(=O)N[C@@H](Cc1c[nH]c2ccccc12)C(=O)O)C(=O)O [SCV-07, γ-D-glutamyl-L-tryptophan]
Titer IgE BAL, dilution 1:8, % of average of the control group ([1]; 0.1 μg/kg): 59 ± 33 % of average of the control group | Titer IgE of serum, dilution 1:640, % of average of the control group ([1]; 0.1 μg/kg): 86 ± 42 % of average of the control group | Titer IgE BAL, dilution 1:8, % of average of the control group ([1]; 1 μg/kg): 46 ± 24 % of average of the control group | Titer IgE of serum, dilution 1:640, % of average of the control group ([1]; 1 μg/kg): 65 ± 26 % of average of the control group | Titer IgE BAL, dilution 1:32, % of average of the control group ([1]; 0.1 μg/kg): 85 ± 70 % of average of the control group | Titer IgE of serum, dilution 1:400, % of average of the control group ([1]; 0.1 μg/kg): 92 ± 44 % of average of the control group | Titer IgE BAL, dilution 1:32, % of average of the control group ([1]; 1 μg/kg): 101 ± 51 % of average of the control group | Titer IgE of serum, dilution 1:400, % of average of the control group ([1]; 1 μg/kg): 79 ± 46 % of average of the control group | Reduction in the percentage of goblet cells in the epithelium of the bronchi vs control ([2]; 0.1 μg/kg, significant vs control): more than two-fold reduction | % goblet cells of total number of cells (median, minimum-maximum) ([2]; animals 6 to 8 weeks, 1 μg/kg): 36.5 (3-92) % | Change in ConA-induced production of IL-4 by the splenocytes [3]: two-fold reduction
